In the Kinase Knowledgebase extract (Sharma et al. 2016):

These molecules were tested against PIK3CD (Human) (UniProt O00329) (assay: Assessment of PIK3CD Kinase Activity (Scintillation Proximity Assay)).
Chain of PIK3CD (Human) (O00329 whole entry, looked up): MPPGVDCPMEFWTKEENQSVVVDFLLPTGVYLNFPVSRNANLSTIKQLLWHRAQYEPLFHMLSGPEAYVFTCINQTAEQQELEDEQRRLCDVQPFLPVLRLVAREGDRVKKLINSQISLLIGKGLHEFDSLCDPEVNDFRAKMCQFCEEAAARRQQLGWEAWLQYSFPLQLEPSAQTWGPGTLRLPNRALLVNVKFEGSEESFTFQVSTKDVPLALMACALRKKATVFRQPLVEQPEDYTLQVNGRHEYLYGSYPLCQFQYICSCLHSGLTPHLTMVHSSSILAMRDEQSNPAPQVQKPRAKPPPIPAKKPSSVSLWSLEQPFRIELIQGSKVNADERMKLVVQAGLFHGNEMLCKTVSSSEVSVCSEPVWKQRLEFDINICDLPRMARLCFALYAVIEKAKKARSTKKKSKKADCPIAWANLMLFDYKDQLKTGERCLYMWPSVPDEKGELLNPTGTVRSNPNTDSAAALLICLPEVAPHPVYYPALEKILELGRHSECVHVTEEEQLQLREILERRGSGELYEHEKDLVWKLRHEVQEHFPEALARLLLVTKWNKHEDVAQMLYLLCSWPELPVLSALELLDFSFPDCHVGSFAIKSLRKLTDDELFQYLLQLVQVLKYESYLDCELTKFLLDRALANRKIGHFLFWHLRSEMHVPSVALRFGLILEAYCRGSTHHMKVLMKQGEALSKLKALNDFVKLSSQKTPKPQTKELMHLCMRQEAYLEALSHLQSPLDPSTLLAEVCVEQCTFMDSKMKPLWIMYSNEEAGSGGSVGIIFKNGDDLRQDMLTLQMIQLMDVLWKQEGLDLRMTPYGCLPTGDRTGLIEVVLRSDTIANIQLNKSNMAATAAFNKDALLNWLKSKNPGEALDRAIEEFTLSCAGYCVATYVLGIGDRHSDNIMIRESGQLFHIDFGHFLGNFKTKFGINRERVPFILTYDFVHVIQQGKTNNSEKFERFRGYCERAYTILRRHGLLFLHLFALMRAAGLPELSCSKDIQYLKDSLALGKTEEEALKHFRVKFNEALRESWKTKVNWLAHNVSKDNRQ
With `COc1c(C(C)n2nc(C)c3c(N)ncnc32)cc(Cl)c(C)c1CC#N` (centres undefined) the IC50 was no more than 10 nM.
`CCOc1c(C(C)n2nc(C(F)F)c3c(N)ncnc32)cc(Cl)c(F)c1C1CN(C)C1` (centres undefined) was tested, and the IC50 was no more than 10 nM.
`CCOc1c(C(C)n2nc(C)c3c(N)ncnc32)cc(Cl)c(C#N)c1C1CN(C(=O)OC)C1` (centres undefined) showed an IC50 of no more than 10 nM.
In the case of `CCOc1c(C(C)n2nc(C(F)F)c3c(N)ncnc32)cc(Cl)c(F)c1C1CN(CC(C)(C)O)C1` (centres undefined), the IC50 is reported as no more than 10 nM.
For `CCOc1c(C(C)n2nc(C)c3c(N)ncnc32)cc(Cl)c(C)c1-c1cncc(S(C)(=O)=O)c1` (centres undefined), the IC50 was no more than 10 nM.
With `COc1c(C(C)n2ccc3c(N)ncnc32)cc(Cl)c(C)c1-c1ccc(C(=O)N(C)C)nc1` (centres undefined) the IC50 was 200 to 500 nM.
With `COc1c(C(C)n2nc(C)c3c(N)ncnc32)cc(Cl)c(C)c1C1CN(CC(C)C#N)C1` (centres undefined) the IC50 was no more than 10 nM.
In the case of `COc1c(C(C)n2nc(C)c3c(N)ncnc32)cc(Cl)c(C)c1C1CN(C(C)=O)C1` (centres undefined), the IC50 is reported as no more than 10 nM.
For `CCOc1c(C(C)n2nc(C)c3c(N)ncnc32)cc(Cl)c(C)c1-c1cncc(C(=O)N(C)C)c1` (centres undefined), the IC50 was no more than 10 nM.
Molecule `COc1c(C(C)n2nc(C)c3c(N)ncnc32)cc(Cl)c(C)c1CC1CC1` (centres undefined) has an IC50 of 50 to 200 nM.
Molecule `CNC(=O)[C@@H](C)N1CC(c2c(C)c(Cl)cc(C(C)n3nc(C)c4c(N)ncnc43)c2OC)C1` (some centres undefined) has an IC50 of no more than 10 nM.
With `CCOc1c(C(C)n2nc(C)c3c(N)ncnc32)cc(Cl)c(F)c1C1CN(CC(N)=O)C1` (centres undefined) the IC50 was no more than 10 nM.
`COc1c(C(C)n2nc(C)c3c(N)ncnc32)cc(Cl)c(Cl)c1C1CN(C(C)C)C1` (centres undefined) gave an IC50 of no more than 10 nM.
Molecule `CCOc1c(C(C)n2nc(CC)c3c(N)ncnc32)cc(Cl)c(C)c1-c1ccc(C(=O)N(C)C)nc1` (centres undefined) has an IC50 of 50 to 200 nM.
With `COc1c(C(C)n2nc(C)c3c(N)ncnc32)cc(Cl)c(C)c1-c1cncc(S(C)(=O)=O)c1` (centres undefined) the IC50 was no more than 10 nM.
`COc1c(C(C)n2nc(C)c3c(N)ncnc32)cc(Cl)c(C)c1CCC(=O)N(C)C` (centres undefined) gave an IC50 of no more than 10 nM.
`CCN1CC(c2c(Cl)c(Cl)cc(C(C)n3nc(C)c4c(N)ncnc43)c2OC)C1` (centres undefined) gave an IC50 of no more than 10 nM.
In the case of `CCOc1c(C(C)n2nc(C)c3c(N)ncnc32)cc(Cl)c(C#N)c1C1CN(CC(C)C)C1` (centres undefined), the IC50 is reported as no more than 10 nM.
Work on `CCOc1c(C(C)n2nc(C#C[C@@H](C)O)c3c(N)ncnc32)cc(Cl)c(C)c1-c1ccc(C(=O)N(C)C)nc1` (some centres undefined) yielded an IC50 of no more than 10 nM.
`CCOc1c(C(C)n2nc(-c3ccc(F)cc3)c3c(N)ncnc32)cc(Cl)c(C)c1-c1ccc(C(=O)N(C)C)nc1` (centres undefined) gave an IC50 of 10 to 50 nM.
Molecule `COc1c(C(C)n2nc(C)c3c(N)ncnc32)cc(Cl)c(Cl)c1C1CN(C[C@@H](C)O)C1` (some centres undefined) has an IC50 of no more than 10 nM.
Work on `COc1c(C(C)n2nc(C)c3c(N)ncnc32)cc(Cl)c(C)c1C1CN(CC(O)C(F)(F)F)C1` (centres undefined) yielded an IC50 of no more than 10 nM.
With `COc1c(C(C)n2nc(C)c3c(N)ncnc32)cc(Cl)c(C#N)c1C1CNC1` (centres undefined) the IC50 was no more than 10 nM.
`CCN1CC(c2c(C#N)c(Cl)cc(C(C)n3nc(C)c4c(N)ncnc43)c2OC)C1` (centres undefined) was tested, and the IC50 was no more than 10 nM.
`CCOc1c(C(C)n2cc(C)c3c(N)ncnc32)cc(Cl)c(C#N)c1C1CN(C[C@H](C)O)C1` (some centres undefined) gave an IC50 of no more than 10 nM.
`COc1c(C(C)n2nc(C)c3c(N)ncnc32)cc(Cl)c(C)c1C1CN(CCO)C1` (centres undefined) showed an IC50 of no more than 10 nM.
`COc1c(C(C)n2nc(C(F)F)c3c(N)ncnc32)cc(Cl)c(F)c1C1CN(C[C@H](C)O)C1` (some centres undefined) showed an IC50 of no more than 10 nM.
With `CCOc1c(C(C)n2nc(C)c3c(N)ncnc32)cc(Cl)c(C#N)c1C1CN(C(=O)NC(C)(C)C)C1` (centres undefined) the IC50 was no more than 10 nM.
`CCNC(=O)c1c(C)c(Cl)cc(C(C)n2nc(-c3ccc4cn[nH]c4c3)c3c(N)ncnc32)c1OCC` (centres undefined) showed an IC50 of no more than 10 nM.
`CCOc1c(C(C)n2nc(C)c3c(N)ncnc32)cc(Cl)c(F)c1C1CN(C(C)C)C1` (centres undefined) gave an IC50 of no more than 10 nM.
Molecule `CCOc1c(C(C)n2nc(C(F)F)c3c(N)ncnc32)cc(Cl)c(F)c1C1CN(C[C@H](C)O)C1` (some centres undefined) has an IC50 of no more than 10 nM.
Work on `COc1c(C(C)n2nc(C)c3c(N)ncnc32)cc(Cl)c(C)c1-c1ccc(NCCO)nc1` (centres undefined) yielded an IC50 of no more than 10 nM.
In the case of `CCOc1c(C(C)n2nc(C)c3c(N)ncnc32)cc(Cl)c(C)c1-c1ccc(C(=O)N(C)C)nc1` (centres undefined), the IC50 is reported as no more than 10 nM.
Work on `COc1c(C(C)n2nc(C)c3c(N)ncnc32)cc(Cl)c(C)c1C1CNC(=O)O1` (centres undefined) yielded an IC50 of no more than 10 nM.
Molecule `CCOc1c(C(C)n2nc(C)c3c(N)ncnc32)cc(Cl)c(C)c1-c1cnn(C)c1` (centres undefined) has an IC50 of no more than 10 nM.
`COc1c(C(C)n2nc(C)c3c(N)ncnc32)cc(Cl)c(C)c1-c1ccnc(C(=O)N(C)C)c1` (centres undefined) gave an IC50 of no more than 10 nM.
Work on `COc1c(C(C)n2nc(C)c3c(N)ncnc32)cc(Cl)c(C)c1C1CN(C)C1` (centres undefined) yielded an IC50 of no more than 10 nM.
Work on `CCOc1c(C(C)n2nc(C)c3c(N)ncnc32)cc(Cl)c(C)c1C1CN(C[C@@H](C)O)C1` (some centres undefined) yielded an IC50 of no more than 10 nM.
With `COc1c(C(C)n2nc(C)c3c(N)ncnc32)cc(Cl)c(C)c1-c1cncc(C#N)c1` (centres undefined) the IC50 was no more than 10 nM.
For `CNC(=O)N1CC(c2c(C#N)c(Cl)cc(C(C)n3nc(C)c4c(N)ncnc43)c2OC)C1` (centres undefined), the IC50 was no more than 10 nM.
With `COc1c(C(C)n2nc(C)c3c(N)ncnc32)cc(Cl)c(C)c1C1CCN(CC(C)(C)O)CC1` (centres undefined) the IC50 was no more than 10 nM.
Molecule `COc1c(C(C)n2nc(C)c3c(N)ncnc32)cc(Cl)c(C#N)c1C1CN(S(C)(=O)=O)C1` (centres undefined) has an IC50 of no more than 10 nM.
For `COc1c(C(C)n2nc(C)c3c(N)ncnc32)cc(Cl)c(C)c1-c1cnn(C(C)C(=O)N(C)C)c1` (centres undefined), the IC50 was no more than 10 nM.
Work on `COc1c(C(C)n2nc(C)c3c(N)ncnc32)cc(Cl)c(C)c1-c1ccnc(C(=O)N(C)CCO)c1` (centres undefined) yielded an IC50 of no more than 10 nM.
